Measured values published in PubChem BioAssay (NCI).
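Five concentrations, 48 hours, 96-well plates. The concentration for 50% growth inhibition is given as GI50. TGI: concentration producing complete growth inhibition.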

Columns and labels:
Assay in all cases: DTP human tumour cell line panel, 48 h
NCI-H226 lung = test system: NCI-H226 lung
SK-MEL-2 melanoma = test system: SK-MEL-2 melanoma
UACC-257 melanoma = test system: UACC-257 melanoma
SNB-19 CNS = test system: SNB-19 CNS
HCC-2998 colon = test system: HCC-2998 colon
SF-268 CNS = test system: SF-268 CNS
CCRF-CEM leukemia = test system: CCRF-CEM leukemia
HL-60(TB) leukemia = test system: HL-60(TB) leukemia
CAKI-1 renal = test system: CAKI-1 renal
NCI-H460 lung = test system: NCI-H460 lung

SMILES: CC(C)C(Nc1c2ccccc2nc2ccccc12)C(=O)O (stereo not given)
- TGI (NCI-H226 lung): > 100 µM
- TGI (SK-MEL-2 melanoma): > 100 µM
- TGI (UACC-257 melanoma): > 100 µM
- TGI (SNB-19 CNS): > 100 µM
- TGI (HCC-2998 colon): > 100 µM
- TGI (SF-268 CNS): > 100 µM
- TGI (CCRF-CEM leukemia): > 100 µM
- TGI (HL-60(TB) leukemia): > 100 µM
- TGI (CAKI-1 renal): > 100 µM
- TGI (NCI-H460 lung): > 100 µM

SMILES: COc1cc2ncnc(Nc3ccc(C)c(O)c3)c2cc1OC
- GI50 (NCI-H226 lung): 20.5 µM
- TGI (NCI-H226 lung): > 25 µM
- GI50 (SK-MEL-2 melanoma): > 13.4 µM
- TGI (SK-MEL-2 melanoma): > 20 µM
- GI50 (UACC-257 melanoma): > 25 µM
- TGI (UACC-257 melanoma): > 25 µM
- GI50 (SNB-19 CNS): > 25 µM
- TGI (SNB-19 CNS): > 25 µM
- GI50 (HCC-2998 colon): > 25 µM
- TGI (HCC-2998 colon): > 25 µM
- GI50 (SF-268 CNS): > 19.2 µM
- TGI (SF-268 CNS): > 25 µM
- GI50 (CCRF-CEM leukemia): > 25 µM
- TGI (CCRF-CEM leukemia): > 25 µM
- GI50 (HL-60(TB) leukemia): > 25 µM
- TGI (HL-60(TB) leukemia): > 25 µM
- GI50 (CAKI-1 renal): 1.99 µM
- TGI (CAKI-1 renal): > 17.5 µM
- GI50 (NCI-H460 lung): > 25 µM
- TGI (NCI-H460 lung): > 25 µM

SMILES: COC(=O)C1=C(C)N(NC(=O)OC(C)(C)C)C(=O)C1=P(c1ccccc1)(c1ccccc1)c1ccccc1
- TGI (NCI-H226 lung): > 100 µM
- TGI (SK-MEL-2 melanoma): > 100 µM
- TGI (UACC-257 melanoma): > 100 µM
- TGI (SNB-19 CNS): > 100 µM
- TGI (HCC-2998 colon): > 100 µM
- TGI (SF-268 CNS): > 100 µM
- TGI (CCRF-CEM leukemia): > 100 µM
- TGI (HL-60(TB) leukemia): > 100 µM
- TGI (CAKI-1 renal): > 100 µM
- TGI (NCI-H460 lung): > 100 µM

SMILES: CC(C)(C)c1cc(C(C)(C)C)cc(S(=O)(=O)Nc2cc3ccccc3cc2C(=O)NCCN)c1
- GI50 (NCI-H226 lung): 2.16 µM
- TGI (NCI-H226 lung): 4.28 µM
- GI50 (SK-MEL-2 melanoma): 1.92 µM
- TGI (SK-MEL-2 melanoma): 3.87 µM
- GI50 (UACC-257 melanoma): 2.09 µM
- TGI (UACC-257 melanoma): 4.02 µM
- GI50 (SNB-19 CNS): 1.89 µM
- TGI (SNB-19 CNS): 3.52 µM
- GI50 (HCC-2998 colon): 1.75 µM
- TGI (HCC-2998 colon): 3.24 µM
- GI50 (SF-268 CNS): 1.68 µM
- TGI (SF-268 CNS): 3.35 µM
- GI50 (CCRF-CEM leukemia): 2.55 µM
- TGI (CCRF-CEM leukemia): 6.41 µM
- GI50 (HL-60(TB) leukemia): 2.04 µM
- TGI (HL-60(TB) leukemia): 4.22 µM
- GI50 (CAKI-1 renal): 2.75 µM
- TGI (CAKI-1 renal): 9.33 µM
- GI50 (NCI-H460 lung): 2.1 µM
- TGI (NCI-H460 lung): 4.12 µM

SMILES: COc1cc(C=C2C(=O)NC(=O)NC2=O)cc(OC)c1OC
- TGI (NCI-H226 lung): > 100 µM
- TGI (SK-MEL-2 melanoma): > 100 µM
- TGI (UACC-257 melanoma): > 100 µM
- TGI (SNB-19 CNS): > 100 µM
- TGI (HCC-2998 colon): > 100 µM
- TGI (SF-268 CNS): > 100 µM
- TGI (CCRF-CEM leukemia): > 100 µM
- TGI (HL-60(TB) leukemia): > 100 µM
- TGI (CAKI-1 renal): > 100 µM
- TGI (NCI-H460 lung): > 100 µM

SMILES: c1cc(CNC23CC4CC(CC(C4)C2)C3)cc(C[N+](Cc2cccc(CNC34CC5CC(CC(C5)C3)C4)c2)(Cc2cccc(CNC34CC5CC(CC(C5)C3)C4)c2)Cc2cccc(CNC34CC5CC(CC(C5)C3)C4)c2)c1 (stereo not given)
- GI50 (NCI-H226 lung): 11.5 µM
- TGI (NCI-H226 lung): 45.3 µM
- GI50 (SK-MEL-2 melanoma): 4.44 µM
- TGI (SK-MEL-2 melanoma): 13.4 µM
- GI50 (UACC-257 melanoma): 12.9 µM
- TGI (UACC-257 melanoma): 45.3 µM
- GI50 (SNB-19 CNS): 8.05 µM
- TGI (SNB-19 CNS): 30.4 µM
- GI50 (HCC-2998 colon): 5.11 µM
- TGI (HCC-2998 colon): 22.2 µM
- GI50 (SF-268 CNS): 6.39 µM
- TGI (SF-268 CNS): 22.6 µM
- GI50 (CCRF-CEM leukemia): 6.1 µM
- TGI (CCRF-CEM leukemia): 209 µM
- GI50 (HL-60(TB) leukemia): 3.64 µM
- TGI (HL-60(TB) leukemia): 11.3 µM
- GI50 (CAKI-1 renal): 5.36 µM
- TGI (CAKI-1 renal): 19.6 µM
- GI50 (NCI-H460 lung): 4.97 µM
- TGI (NCI-H460 lung): 11.3 µM

SMILES: Nn1c(=O)n(Cc2ccccc2)n(-c2ccccc2)c1=O
- TGI (NCI-H226 lung): > 100 µM
- TGI (SK-MEL-2 melanoma): > 100 µM
- TGI (UACC-257 melanoma): > 100 µM
- TGI (SNB-19 CNS): > 100 µM
- TGI (HCC-2998 colon): > 100 µM
- TGI (SF-268 CNS): > 100 µM
- TGI (CCRF-CEM leukemia): > 100 µM
- TGI (HL-60(TB) leukemia): > 100 µM
- TGI (CAKI-1 renal): > 100 µM
- TGI (NCI-H460 lung): > 100 µM

SMILES: COC(=O)[C@H](C)NC(=O)NC(=O)NC(=O)CI
- GI50 (NCI-H226 lung): 19.8 µM
- TGI (NCI-H226 lung): 44.9 µM
- GI50 (SK-MEL-2 melanoma): 15.4 µM
- TGI (SK-MEL-2 melanoma): 29.9 µM
- GI50 (UACC-257 melanoma): 15.8 µM
- TGI (UACC-257 melanoma): 29.9 µM
- GI50 (SNB-19 CNS): 19.8 µM
- TGI (SNB-19 CNS): 43.1 µM
- GI50 (HCC-2998 colon): 17.3 µM
- TGI (HCC-2998 colon): 33.6 µM
- GI50 (SF-268 CNS): 17.2 µM
- TGI (SF-268 CNS): 36.3 µM
- GI50 (CCRF-CEM leukemia): 2.03 µM
- TGI (CCRF-CEM leukemia): 4.44 µM
- GI50 (HL-60(TB) leukemia): 2.15 µM
- TGI (HL-60(TB) leukemia): 4.51 µM
- GI50 (CAKI-1 renal): 2.53 µM
- TGI (CAKI-1 renal): 6.73 µM
- GI50 (NCI-H460 lung): 20.1 µM
- TGI (NCI-H460 lung): 40.8 µM

SMILES: O=C(Cc1ccccc1)NN1C(=O)C(Cl)C1c1cc(Br)ccc1O (stereo not given)
- TGI (NCI-H226 lung): 69.7 µM
- TGI (SK-MEL-2 melanoma): > 100 µM
- TGI (UACC-257 melanoma): > 100 µM
- TGI (SNB-19 CNS): 47.9 µM
- TGI (HCC-2998 colon): > 100 µM
- TGI (SF-268 CNS): 50 µM
- TGI (CCRF-CEM leukemia): > 100 µM
- TGI (HL-60(TB) leukemia): 13.6 µM
- TGI (CAKI-1 renal): 60.7 µM
- TGI (NCI-H460 lung): > 100 µM

SMILES: COc1cc2c(cc1OC)C(CC(=O)NN=C(C)C)NCC2 (stereo not given)
- TGI (NCI-H226 lung): > 100 µM
- TGI (SK-MEL-2 melanoma): > 100 µM
- TGI (UACC-257 melanoma): > 100 µM
- TGI (SNB-19 CNS): > 100 µM
- TGI (HCC-2998 colon): > 100 µM
- TGI (SF-268 CNS): > 100 µM
- TGI (CCRF-CEM leukemia): > 100 µM
- TGI (HL-60(TB) leukemia): > 100 µM
- TGI (CAKI-1 renal): > 100 µM
- TGI (NCI-H460 lung): > 100 µM

SMILES: COc1cc2c3c(n(CCCNC(=O)OCC4c5ccccc5-c5ccccc54)c(=O)c2cc1OC)-c1cc2c(cc1/C3=C\CCNC(=O)OCC1c3ccccc3-c3ccccc31)OCO2
- GI50 (NCI-H226 lung): > 50 µM
- TGI (NCI-H226 lung): > 50 µM
- GI50 (SK-MEL-2 melanoma): > 10.2 µM
- TGI (SK-MEL-2 melanoma): > 21.6 µM
- GI50 (UACC-257 melanoma): > 50 µM
- TGI (UACC-257 melanoma): > 50 µM
- GI50 (SNB-19 CNS): > 29.6 µM
- TGI (SNB-19 CNS): > 50 µM
- GI50 (HCC-2998 colon): > 50 µM
- TGI (HCC-2998 colon): > 50 µM
- GI50 (SF-268 CNS): 1.48 µM
- TGI (SF-268 CNS): > 14 µM
- GI50 (CCRF-CEM leukemia): 1.42 µM
- TGI (CCRF-CEM leukemia): > 50 µM
- GI50 (HL-60(TB) leukemia): 18.1 µM
- TGI (HL-60(TB) leukemia): > 50 µM
- GI50 (CAKI-1 renal): > 13.8 µM
- TGI (CAKI-1 renal): > 46.1 µM
- GI50 (NCI-H460 lung): > 50 µM
- TGI (NCI-H460 lung): > 50 µM

SMILES: CCOC(=O)C1=C(C)N(NC(=O)Nc2ccccc2)C(=O)C1=P(c1ccccc1)(c1ccccc1)c1ccccc1
- TGI (NCI-H226 lung): > 100 µM
- TGI (SK-MEL-2 melanoma): 98.3 µM
- TGI (UACC-257 melanoma): > 100 µM
- TGI (SNB-19 CNS): > 100 µM
- TGI (HCC-2998 colon): > 100 µM
- TGI (SF-268 CNS): > 100 µM
- TGI (CCRF-CEM leukemia): 96.7 µM
- TGI (HL-60(TB) leukemia): 50.4 µM
- TGI (CAKI-1 renal): > 100 µM
- TGI (NCI-H460 lung): > 100 µM

SMILES: CCOC(=O)CC1(C(=O)OCC)c2[nH]c3ccccc3c2CCN1Cc1ccccc1 (stereo not given)
- TGI (NCI-H226 lung): 35.5 µM
- TGI (SK-MEL-2 melanoma): 32.8 µM
- TGI (UACC-257 melanoma): 40.5 µM
- TGI (SNB-19 CNS): > 100 µM
- TGI (HCC-2998 colon): 28.9 µM
- TGI (SF-268 CNS): 37.7 µM
- TGI (CCRF-CEM leukemia): > 100 µM
- TGI (HL-60(TB) leukemia): 62.5 µM
- TGI (CAKI-1 renal): 99.2 µM
- TGI (NCI-H460 lung): 42.6 µM
